# Source: paper PMC9151520 (Archives of Toxicology, 2022)
# Values joined by “and” are separate entries in the source; they are usually repeats but may differ in a detail not shown here. Equal entries are not always repeated. Structures can show the parent of a compound that is named as a salt. Where two headings read alike, the source gives them in different places.
# Key:
# [1] = test system: p53 signaling (p53RE-bla HCT-116 cells)
# [2] = test system: p53 signaling (p53RE-bla HCT-116 cells); experiment: cells; assay type: cell-based
# [3] = test system: p53 signaling (p53RE-bla HCT-116 cells); remark: listed apart in the source
# [4] = read-out: p53 activation EC50, cherry pick confirmation
# [5] = read-out: p53 activation EC50, primary screening
# [6] = read-out: EC50, p53 activation, cherry pick confirmation
# [7] = Homo sapiens, HCT-116, read-out: p53 activation EC50, primary screening
# [8] = Homo sapiens, HCT-116, read-out: p53 activation efficacy, primary screening
compound,measurement,setting,value
CN1C(=O)N(c2ccccc2Br)Cc2cnc(Nc3ccc4c(c3)OCC(CO)O4)nc21 (stereo not shown) [PharmaGSID_48519],"p53 activation EC50, cherry pick confirmation",[1],inactive
same,"p53 activation EC50, primary screening",[1],inactive
same,"p53 activation efficacy, cherry pick confirmation",[1],inactive
same,"p53 activation efficacy, primary screening",[1],inactive
same,"p53 activation efficacy, cherry pick confirmation",[2],31.694
same,"p53 activation efficacy, primary screening",[2],31.571
same,EC50,[2]; [4],13.6 µM
same,EC50,[2]; [5],9.59 µM
same,"Viability EC50, cherry pick confirmation",p53RE-bla HCT-116 cells,inactive
same,"Viability EC50, primary screening",p53RE-bla HCT-116 cells,inactive
same,"Viability efficacy, cherry pick confirmation",p53RE-bla HCT-116 cells,inactive
same,"Viability efficacy, primary screening",p53RE-bla HCT-116 cells,inactive
same,"p53 activation EC50, cherry pick confirmation",[3],inactive
same,"p53 activation EC50, primary screening",[3],inactive
same,"p53 activation efficacy, cherry pick confirmation",[3],inactive
same,"p53 activation efficacy, primary screening",[3],inactive
C[C@H]1O[C@@H](n2cc(F)c(=O)[nH]c2=O)[C@H](O)[C@@H]1O [Doxifluridine],"EC50, p53 activation, cherry pick confirmation",[1],inactive
same,"EC50, p53 activation, primary screening",[1],inactive
same,"Efficacy, p53 activation, cherry pick confirmation",[1],inactive
same,"Efficacy, p53 activation, primary screening",[1],inactive
same,"EC50, p53 activation, cherry pick confirmation",[2],inactive
same,"Efficacy, p53 activation, cherry pick confirmation",[2],inactive
same,EC50,"[2]; Homo sapiens, HCT-116, read-out: EC50, p53 activation, primary screening",10.6 µM
same,Emax,"[2]; Homo sapiens, HCT-116, read-out: Efficacy, p53 activation, primary screening",83.9%
same,"EC50, viability, cherry pick confirmation",p53RE-bla HCT-116 cells,inactive
same,"EC50, viability, primary screening",p53RE-bla HCT-116 cells,inactive
same,"Efficacy, viability, cherry pick confirmation",p53RE-bla HCT-116 cells,inactive
same,"Efficacy, viability, primary screening",p53RE-bla HCT-116 cells,inactive
same,"EC50, p53 activation, cherry pick confirmation",[3],inactive
same,"EC50, p53 activation, primary screening",[3],inactive
same,"Efficacy, p53 activation, cherry pick confirmation",[3],inactive
same,"Efficacy, p53 activation, primary screening",[3],inactive
CCOC(=O)c1c(N)sc2c1CCN(Cc1ccccc1)C2 [Tinoridine],p53 activation EC50,[1],inactive
same,p53 activation EC50,[2],inactive
same,p53 activation efficacy,[2],inactive
same,Viability EC50,p53RE-bla HCT-116 cells,inactive
same,Viability efficacy,p53RE-bla HCT-116 cells,inactive
same,p53 activation EC50,[3],inactive
O=C(O)Cc1cc(I)c(Oc2ccc(O)c(I)c2)c(I)c1 [Tiratricol],p53 activation EC50,[1],inactive
same,p53 activation efficacy,[1],inactive
same,p53 activation efficacy,[2],79.5057 and 58.391
same,EC50,"[2]; Homo sapiens, HCT-116, read-out: p53 activation EC50",16.5 µM
same,EC50,[2]; read-out: p53 activation EC50,10.7 µM
same,Viability EC50,p53RE-bla HCT-116 cells,inactive
same,Viability efficacy,p53RE-bla HCT-116 cells,inactive
same,p53 activation EC50,[3],inactive
same,p53 activation efficacy,[3],inactive
COP(=O)(OC)Oc1ccc([N+](=O)[O-])cc1 [Methylparaoxon],EC50,[1],20.1 µM
same,EC50,[1]; [6],20 µM
same,"EC50, p53 activation, cherry pick confirmation",[2],inactive
same,"EC50, p53 activation, primary screening",[2],inactive
same,"Efficacy, p53 activation, cherry pick confirmation",[2],inactive
same,"Efficacy, p53 activation, primary screening",[2],inactive
same,"EC50, viability, cherry pick confirmation",p53RE-bla HCT-116 cells,inactive
same,"EC50, viability, primary screening",p53RE-bla HCT-116 cells,inactive
same,"Efficacy, viability, cherry pick confirmation",p53RE-bla HCT-116 cells,inactive
same,"Efficacy, viability, primary screening",p53RE-bla HCT-116 cells,inactive
same,"EC50, p53 activation, cherry pick confirmation",[3],inactive
C[C@H]1CCCC(=O)CCC/C=C/c2cc(O)cc(O)c2C(=O)O1 [Zearalenone],"p53 activation EC50, cherry pick confirmation",[1],inactive
same,"p53 activation EC50, primary screening",[1],inactive
same,"p53 activation efficacy, cherry pick confirmation",[1],inactive
same,"p53 activation efficacy, primary screening",[1],inactive
same,"p53 activation EC50, cherry pick confirmation",[2],inactive
same,"p53 activation efficacy, cherry pick confirmation",[2],inactive
same,EC50,[2]; [7],16.8 µM
same,Emax,[2]; [8],49.2%
same,"Viability EC50, cherry pick confirmation",p53RE-bla HCT-116 cells,inactive
same,"Viability EC50, primary screening",p53RE-bla HCT-116 cells,inactive
same,"Viability efficacy, cherry pick confirmation",p53RE-bla HCT-116 cells,inactive
same,"Viability efficacy, primary screening",p53RE-bla HCT-116 cells,inactive
same,"p53 activation EC50, cherry pick confirmation",[3],inactive
same,"p53 activation EC50, primary screening",[3],inactive
same,"p53 activation efficacy, cherry pick confirmation",[3],inactive
same,"p53 activation efficacy, primary screening",[3],inactive
Oc1c(Cl)cc(Cl)cc1Sc1cc(Cl)cc(Cl)c1O [Sodium bithionolate],"EC50, p53 activation, cherry pick confirmation",[1],inactive
same,"EC50, p53 activation, primary screening",[1],inactive
same,"Efficacy, p53 activation, cherry pick confirmation",[1],inactive
same,"Efficacy, p53 activation, primary screening",[1],inactive
same,"EC50, p53 activation, cherry pick confirmation",[2],inactive
same,"Efficacy, p53 activation, cherry pick confirmation",[2],inactive
same,"Efficacy, p53 activation, primary screening",[2],34.4493
same,EC50,"[2]; read-out: EC50, p53 activation, primary screening",17.3 µM
same,"EC50, viability, cherry pick confirmation",p53RE-bla HCT-116 cells,inactive
same,"EC50, viability, primary screening",p53RE-bla HCT-116 cells,inactive
same,EC50,"p53RE-bla HCT-116 cells; read-out: EC50, viability, cherry pick confirmation",46.5 µM and 39.1 µM
same,EC50,"p53RE-bla HCT-116 cells; read-out: EC50, viability, primary screening",43.5 µM and 45.5 µM
same,"EC50, p53 activation, cherry pick confirmation",[3],inactive
same,"EC50, p53 activation, primary screening",[3],inactive
same,"Efficacy, p53 activation, cherry pick confirmation",[3],inactive
same,"Efficacy, p53 activation, primary screening",[3],inactive
Acriflavine hydrochloride,"p53 activation EC50, cherry pick confirmation",[1],inactive
same,"p53 activation EC50, primary screening",[1],inactive
same,"p53 activation efficacy, cherry pick confirmation",[1],inactive
same,"p53 activation efficacy, primary screening",[1],inactive
same,"p53 activation efficacy, cherry pick confirmation",[2],281.114
same,"p53 activation efficacy, primary screening",[2],193.527
same,EC50,[2]; [4],2.46 µM
same,EC50,[2]; [5],5.41 µM
same,"Viability EC50, cherry pick confirmation",p53RE-bla HCT-116 cells,inactive
same,"Viability EC50, primary screening",p53RE-bla HCT-116 cells,inactive
same,"Viability efficacy, cherry pick confirmation",p53RE-bla HCT-116 cells,inactive
same,"Viability efficacy, primary screening",p53RE-bla HCT-116 cells,inactive
same,"p53 activation EC50, cherry pick confirmation",[3],inactive
same,"p53 activation EC50, primary screening",[3],inactive
same,"p53 activation efficacy, cherry pick confirmation",[3],inactive
same,"p53 activation efficacy, primary screening",[3],inactive
CN(C)c1ccc(C(=N)c2ccc(N(C)C)cc2)cc1 [Auramine hydrochloride],"p53 activation EC50, cherry pick confirmation",[1],inactive
same,"p53 activation EC50, primary screening",[1],inactive
same,"p53 activation efficacy, cherry pick confirmation",[1],inactive
same,"p53 activation efficacy, primary screening",[1],inactive
same,"p53 activation EC50, cherry pick confirmation",[2],inactive
same,"p53 activation efficacy, cherry pick confirmation",[2],inactive
same,EC50,[2]; [7],3.94 µM
same,Emax,[2]; [8],37.6%
same,"Viability EC50, cherry pick confirmation",p53RE-bla HCT-116 cells,inactive
same,"Viability EC50, primary screening",p53RE-bla HCT-116 cells,inactive
same,"Viability efficacy, cherry pick confirmation",p53RE-bla HCT-116 cells,inactive
same,"Viability efficacy, primary screening",p53RE-bla HCT-116 cells,inactive
same,"p53 activation EC50, cherry pick confirmation",[3],inactive
same,"p53 activation EC50, primary screening",[3],inactive
same,"p53 activation efficacy, cherry pick confirmation",[3],inactive
same,"p53 activation efficacy, primary screening",[3],inactive
CCOP(=S)(OCC)Oc1cc(Cl)c(Br)cc1Cl [Bromophos-ethyl],EC50,[1],12.5 µM
same,EC50,[1]; [6],6.31 µM
same,"EC50, p53 activation, primary screening",[2],inactive
same,"Efficacy, p53 activation, cherry pick confirmation",[2],38.522
same,"Efficacy, p53 activation, primary screening",[2],inactive
same,EC50,[2]; [6],33.2 µM
same,"EC50, viability, cherry pick confirmation",p53RE-bla HCT-116 cells,inactive
same,"EC50, viability, primary screening",p53RE-bla HCT-116 cells,inactive
same,"Efficacy, viability, cherry pick confirmation",p53RE-bla HCT-116 cells,inactive
same,"Efficacy, viability, primary screening",p53RE-bla HCT-116 cells,inactive
same,"EC50, p53 activation, cherry pick confirmation",[3],inactive
S=c1[nH]cnc2nc[nH]c12 [6-Mercaptopurine],"p53 activation EC50, cherry pick confirmation",[1],inactive
same,"p53 activation EC50, primary screening",[1],inactive
same,"p53 activation efficacy, cherry pick confirmation",[1],inactive
same,"p53 activation efficacy, primary screening",[1],inactive
same,EC50,"[2]; Homo sapiens, HCT-116, read-out: p53 activation EC50, cherry pick confirmation",9.76 µM
same,EC50,[2]; [7],7.97 µM
same,Emax,"[2]; Homo sapiens, HCT-116, read-out: p53 activation efficacy, cherry pick confirmation",41.7%
same,Emax,[2]; [8],80.4%
same,"Viability EC50, cherry pick confirmation",p53RE-bla HCT-116 cells,inactive
same,"Viability EC50, primary screening",p53RE-bla HCT-116 cells,inactive
same,"Viability efficacy, cherry pick confirmation",p53RE-bla HCT-116 cells,inactive
same,"Viability efficacy, primary screening",p53RE-bla HCT-116 cells,inactive
same,"p53 activation EC50, cherry pick confirmation",[3],inactive
same,"p53 activation EC50, primary screening",[3],inactive
same,"p53 activation efficacy, cherry pick confirmation",[3],inactive
same,"p53 activation efficacy, primary screening",[3],inactive
"O=c1n(CC2CO2)c(=O)n(CC2CO2)c(=O)n1CC1CO1 (stereo not shown) [Tris(2,3-epoxypropyl)isocyanurate]","p53 activation EC50, cherry pick confirmation",[1],inactive
same,"p53 activation EC50, primary screening",[1],inactive
same,"p53 activation efficacy, cherry pick confirmation",[1],inactive
same,"p53 activation efficacy, primary screening",[1],inactive
same,"p53 activation efficacy, cherry pick confirmation",[2],90.7567
same,"p53 activation efficacy, primary screening",[2],99.0367
same,EC50,[2]; [4],27.9 µM
same,EC50,[2]; [5],23.7 µM
same,"Viability EC50, cherry pick confirmation",p53RE-bla HCT-116 cells,inactive
same,"Viability EC50, primary screening",p53RE-bla HCT-116 cells,inactive
same,"Viability efficacy, cherry pick confirmation",p53RE-bla HCT-116 cells,inactive
same,"Viability efficacy, primary screening",p53RE-bla HCT-116 cells,inactive
same,"p53 activation EC50, cherry pick confirmation",[3],inactive
same,"p53 activation EC50, primary screening",[3],inactive
same,"p53 activation efficacy, cherry pick confirmation",[3],inactive
same,"p53 activation efficacy, primary screening",[3],inactive
Nc1ccc2cc3ccc(N)cc3nc2c1.Nc1ccc2cc3ccc(N)cc3nc2c1.O=S(=O)(O)O [Proflavin hemisulfate],"p53 activation EC50, cherry pick confirmation",[1],inactive
same,"p53 activation EC50, primary screening",[1],inactive
same,"p53 activation efficacy, cherry pick confirmation",[1],inactive
same,"p53 activation efficacy, primary screening",[1],inactive
same,"p53 activation efficacy, cherry pick confirmation",[2],364.531
same,"p53 activation efficacy, primary screening",[2],180.344
same,EC50,[2]; [4],5.5 µM
same,EC50,[2]; [5],4.88 µM
same,"Viability EC50, cherry pick confirmation",p53RE-bla HCT-116 cells,inactive
same,"Viability EC50, primary screening",p53RE-bla HCT-116 cells,inactive
same,"Viability efficacy, primary screening",p53RE-bla HCT-116 cells,inactive
same,EC50,"p53RE-bla HCT-116 cells; read-out: Viability EC50, cherry pick confirmation",17.8 µM
same,"p53 activation EC50, cherry pick confirmation",[3],inactive
same,"p53 activation EC50, primary screening",[3],inactive
same,"p53 activation efficacy, cherry pick confirmation",[3],inactive
same,"p53 activation efficacy, primary screening",[3],inactive
CCOC(=O)CCN(SN(C)C(=O)Oc1cccc2c1OC(C)(C)C2)C(C)C [Benfuracarb],p53 activation EC50,[1],inactive
same,p53 activation EC50,[2],inactive
same,p53 activation efficacy,[2],inactive
same,Viability EC50,p53RE-bla HCT-116 cells,inactive
same,Viability efficacy,p53RE-bla HCT-116 cells,inactive
same,p53 activation EC50,[3],inactive
